For data set [1], the system named is H22 cells. The method, then:
MPE usually refers to tumors originated from the chest metastasis to the pleural space, which leads to the formation of excessive fluid containing cancerous cells and it accounts for about 50% of all pleural effusions. […] Materials: mice liver cancer cell line line (purchased from CCTCC), BAL/c mice (female, 6-7 weeks old, 18-22 g, SPF, purchased from Wei Tong Li Hua, Beijing). BSG, 2 mg/ml, produced in house. Comparator CTX (cyclophosphamide, 0.2 g, from Baxter Oncology GmbH, batch no. 6D111A). Sodium Chloride for Injection (2.25 g, 250 ml, 0.9%, from Zhejiang Tianrui, pharmaceutica, batch no. 116102506).
Methods: Thaw H22 cells, adjust density to 1×10^7 cells/ml, then inject 3 mice, 0.2 ml each. Collect excessive fluid from the injected mice on after 7 days and adjust cell density to 5×10^5/ml, inject another […] into the peritoneal muscle, 0.2 ml/mouse. Divided the mice randomly into 6 groups of 14 mice each three days post-inoculation, among the 14 mice of each group, 6 will be kept separately for survival study (see Table 4b). Treat mice continuously (grouping detail see Table 4a and 4b).
Observations: 1) record mice behavior and skin/fur glossiness daily, measure body weights every two days; 2) 5 h post-treatment on D6, obtain blood from eye venous plexus until death and separate serum for white blood cell count (at least 20 ul); after obtaining blood, execute mice by cervical dislocation, measure pleural fluid volume and obtain thymus, spleen and lung, record organ weight; 3) record survival status of the rest of mice in Groups A2 to E2, calculate average increase in life span (ILS) using formula=[(ave. survival days of treatment groups/ave. survival days of control group)−1]×100%; 4) calculate rate of MPE suppression (%)=(1−ave. MPE volume of treatment groups/ave. MPE volume of control group)×100%.

The test system of data set [2] is S180 cell line. The data set can be described thus: Concomitant use of BSG with chemotherapeutic drugs in S180 cell line induced MA (Example 4). The data set is classed as in vivo, mice. The conditions noted are these: for Ascites Vol.: D12 (2 d post-treatment), 7 days treatment from 4 d post-inoculation. The method, then: Materials: S180 cell line (purchased from CCTCC), female BAL/c mice (6-7 weeks old purchased from Centre of Laboratory Animal for Medical Science, Guangdong), BSG (2 mg/ml, produced in house), DDP (cisplatin, 5 mg/ml, from Jingasu Hansoh Pharma, batch no. 160603), CTX (cyclophosphamide), Sodium Chloride for Injection (2.25 g, 250 ml, 0.9%, from Zhejiang Tianrui, pharmaceutica, batch no. 116102506). Methods: 1. MA induction and propagation in mice: take logarithmic growth phase cells, adjust cell density to 5×10^6/ml, inject mice (i.p., 0.4 ml per animal). Collect MA fluid from mice 7-8 days post inoculation, adjust cell density to 2×10^7/ml and inject another 4 mice (i.p., 0.4 ml per animal). Collect MA fluid again from mice 6-7 days post inoculation, adjust cell density to 5×10^6/ml and inoculate 2×10^6 cells to 48 mice before grouping. 2. Grouping: randomly divide mice 4 d post-inoculation according to body weight into A, B, C, D, E, F groups with 8 mice per group. Treat mice with A. BSG (7.5 mg/kg), B. CTX (50 mg/kg), C. DDP (0.5 mg/kg), D. BSG (7.5 mg/kg)+CTX (50 mg/kg), E. BSG (7.5 mg/kg)+DDP (0.5 mg/kg), F. N.S control for 7 days (Grouping detail see Table 7).
3. Observations: 1) record mice behavior and skin/fur glossiness daily, measure body weights and abdominal girth every two days; 2) 2 d post-treatment (D12), obtain blood from eye venous plexus and separate serum for while blood cell count (at least 20 ul). After obtaining blood, execute mice by cervical dislocation, measure pleural fluid volume and record color of fluid; 3) calculate rate of MPE suppression (%)=(1−ave. MPE volume of treatment groups/ave. MA volume of control group)×100%.

For data set [3], the system named is mice liver cancer cell line H22. The data set can be described thus: BSG in preventing and controlling MA in H22 mouse model (Example 2). Format: in vivo. The conditions noted are these: for number of mice with nodules at the 7th day post inoculation: 9 mice each; for No. mice survive through Day 15: 9 mice/group; for ILS (average increase in life span): vs control group. The protocol: Materials: mice liver cancer cell line H22; female mice 6-8 weeks old, 18-22 g. BSG, containing 2 mg/ml PIC, produced in-house; comparator, DDP purchased from Jiangzu Haoseng; negative control normal saline (N.S).
Methods: Thaw H22 cell line, wash before inject intraperitoneally (i.p.) into 2 female BALB/c mice, and wait 10 days for peritoneal fluid accumulation. Draw accumulated fluid on D10, adjust the cell density at 1×10^7/ml. Inject another 54 mice via i.p. route with 0.2 ml of the fluid containing total of 2×10^6 cancerous cells. Pick 18 mice and divide into 2 groups at random 24 h post-inoculation. Each group of mice receives either A. BSG (subcutaneous, s.c. 200 ug/ul) or B. DDP (intraperitoneal, i.p. 20 ug/ul) at dosage set out below as a preventive measure. Treat mice daily for 14 days. The rest of mice were divided into 4 groups at random 5 d post-inoculation, namely C. BSG group (s.c.), D. BSG group (i.p.), E. DDP group (i.p.), and F. control group (s.c., N.S). Treat mice daily for 10 days (grouping detail see table below).
MA volume of treatment groups/ave. MA volume of control group)×100%.

[4] abbreviates: survival groups, 6 mice each, i.m., BSG 7.5 mg/kg, CTX 30 mg/kg, alone or combined.
[5] abbreviates: BSG 7.5 mg/kg i.m., CTX 50 mg/kg i.m., DDP 0.5 mg/kg i.p., alone or combined.
The mark [6] stands for this setting: D12, BSG 7.5 mg/kg i.m., CTX 50 mg/kg i.m., DDP 0.5 mg/kg i.p., alone or combined.
Setting [7] is: preventive, from 24 h post-inoculation, daily 14 days, BSG 200 ug s.c. (Group A), DDP 20 ug i.p. (Group B).
Where [8] appears, read: treatment from 5 d post-inoculation, daily 10 days, i.p.: BSG 200 ug (Group D), DDP 20 ug (Group E).

With `O=P1(N(CCCl)CCCl)NCCCO1` (stereo not shown) [CTX, cyclophosphamide], the “body weight on D7” value in data set [1] (BSG high dose 7.5 mg/kg, CTX 30 mg/kg, combined, i.m., FIG. 5) is “lower body weight”. In data set [1] (CTX 30 mg/kg i.m., FIG. 4), the “organ weight post treatment (thymus and spleen)” value was “lower average weight of organ”. In data set [1] (i.m., BSG 7.5 mg/kg, CTX 30 mg/kg, alone or combined), the “Ave. survival” value is listed as 6.00 days. For the same compound, the “ILS (average increase in life span)” value in data set [1] (i.m., BSG 7.5 mg/kg, CTX 30 mg/kg, alone or combined, vs control, % only in formula b145) came out at 2.86%. Further, in data set [1] (setting [4]), the “No. of Mice D 3” value is reported as 6, the “No. of Mice D 4” value stood at 6, the “No. of Mice D 5” value is 4 and the “No. of Mice D 6” value is listed as 1. Besides, in data set [1] (setting [4]), the “No. of Mice D 7” value is given as 1, the “No. of Mice D 8” value is reported as 0 and the “No. of Mice D 9” value was 0. In addition, the “Ascites Vol.” value in data set [2] (setting [5]) is 2.84 mL. For the same compound, the MA color recorded in data set [2] (setting [6]) is 3 mice with bloody ascites, 4 faintly red and 1 milky color. Moreover, the “MA Suppression” value in data set [2] (D12, BSG 7.5 mg/kg i.m., CTX 50 mg/kg i.m., DDP 0.5 mg/kg i.p., alone or combined, vs N.S control) worked out at 63.5%.

`N.N.[Cl][Pt][Cl]` [DDP, cisplatin]: in data set [3] (cell count 2D post-treatment (D15), preventive: BSG 200 ug s.c. (Group A), DDP 20 ug i.p. (Group B)), the “average cancerous cells in ascites” value is reported as 3.17 10^6/ml. Further, the “ascites volume (on average)” value in data set [3] (i.p. administration, BSG 200 ug, DDP 20 ug daily, D15) is 1.7 mL. Further, the “number of mice with nodules at the 7th day post inoculation” value in data set [3] (preventive groups, BSG 200 ug s.c. (Group A, small size nodule), DDP 20 ug i.p. (Group B, medium size nodules)) is 6. For the same compound, in data set [3] (setting [7]), the “No. mice survive through Day 15” value is 6, the “Ave. survival” value is listed as 14.4 days and the “ILS (average increase in life span)” value was 72%. Further, the “number of mice with nodules at the 7th day post inoculation” value in data set [3] (treatment from 5 d, i.p.: BSG 200 ug (Group D), DDP 20 ug (Group E), medium size nodules) was determined as 6. For the same compound, in data set [3] (setting [8]), the “No. mice survive through Day 15” value is listed as 2, the “Ave. survival” value was 12.8 days and the “ILS (average increase in life span)” value is recorded as 53%. In addition, the “number of mice not alive until D12” value in data set [2] (8 mice per group, DDP 0.5 mg/kg i.p. (Group C), BSG 7.5 mg/kg + CTX 50 mg/kg (Group D)) turned out to be 4. In addition, in data set [2] (setting [5]), the “Ascites Vol.” value stood at 5.63 mL. Also, in data set [2] (setting [6]), the MA color recorded result is reported as “bloody ascites with one mouse having milky color”. The “tumor burden and MA volume (body weight on D12)” value in data set [2] (survived mice, D12, FIG. 7) was “largest tumor burden and MA volume”.

For the origin of these results see US11020419B2, “Use of polyinosinic-polycytidylic acid compositions in treatment of malignant effusion” (BIOSYNGEN PTE, LTD, priority 2016, dated 2021).
